Laboratory results from PubChem BioAssay (NCI).
Where “and” joins values, the source holds several entries; their conditions need not be identical. Equal entries are not always repeated.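 Method: 48-hour compound exposure of cells in 96-well plates, five concentrations, linear interpolation of endpoints. Abbreviation: GI50, concentration required for 50% inhibition of growth. Definition used: TGI = concentration required for complete inhibition of growth.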

Tests used:
Assay in all cases: DTP human tumour cell line panel, 48 h
DMS 114 small cell lung = test system: DMS 114 small cell lung
DMS 273 small cell lung = test system: DMS 273 small cell lung
DLD-1 colon = test system: DLD-1 colon
LXFL 529 NSCLC = test system: LXFL 529 NSCLC
HOP-18 NSCLC = test system: HOP-18 NSCLC
MDA-MB-435 = test system: MDA-MB-435
BT-549 breast = test system: BT-549 breast
MCF7 breast = test system: MCF7 breast
PC-3 prostate = test system: PC-3 prostate
MDA-MB-231 breast = test system: MDA-MB-231 breast

SMILES	TGI (DMS 114 small cell lung)	TGI (DMS 273 small cell lung)	TGI (DLD-1 colon)	TGI (LXFL 529 NSCLC)	TGI (HOP-18 NSCLC)	GI50 (DMS 114 small cell lung)	GI50 (DMS 273 small cell lung)	TGI (MDA-MB-435) [µM]	TGI (BT-549 breast) [µM]	TGI (MCF7 breast) [µM]	TGI (PC-3 prostate) [µM]	TGI (MDA-MB-231 breast) [µM]	GI50 (DLD-1 colon) [µM]	GI50 (LXFL 529 NSCLC) [µM]
O=C(/C=C/c1ccc[nH]1)c1ccccc1	> 100 µM	> 100 µM	> 100 µM	> 100 µM	> 100 µM									
CC1OC(OC23C(=O)CC(C)(O)CC2(O)C=CC2=C3C(=O)c3ccc(C4CC(OC5CCC(OC6CC(O)C(O)C(C)O6)C(C)O5)C(O)C(C)O4)c(O)c3C2=O)CCC1O (configuration not stated)	31 µM and 21.2 µM	36.3 µM and 10 µM	26.8 µM and 23.8 µM	28.8 µM and 23.9 µM	31.3 µM and 30.8 µM	16.5 µM and 8.11 µM	20.5 µM and 3.18 µM							
COc1ccc2c(c1)[n+]([O-])c(/C(C)=N/NC(N)=S)c(C)[n+]2[O-]	> 100 µM		> 100 µM	> 100 µM	> 100 µM			> 100	> 100	> 100	> 100	> 100		
[O-]c1ccccc1[C-]=Nc1ccccc1O.[O-]c1ccccc1[C-]=Nc1ccccc1O.[O]=[U]=[O]	23.2 µM	59.5 µM	41 µM	34.8 µM		2.4 µM	13.7 µM						2.23	4.11
CN1CCN2c3ccccc3CC(C#N)(C#N)C2C1 (configuration not stated)	> 100 µM	> 100 µM	> 100 µM	> 100 µM	> 100 µM									
CCOC(=O)C1Nc2ccc([N+](=O)[O-])cc2[C@H]2OCC[C@@H]12 (some centres not stated)	> 100 µM	> 100 µM	> 100 µM		> 100 µM									
O=C1C[C@@H]2[C@@H](C=CC23CC3)N1O		> 100 µM	> 100 µM	> 100 µM	> 100 µM									
CC(C)(C)c1cc(O)c2c(c1O)C(=O)CCC2	69.1 µM	> 100 µM	> 100 µM	> 100 µM	> 100 µM									
CN1C(=O)C(C)(C)NS1(=O)=O	> 100 µM	> 100 µM	> 100 µM	> 100 µM										
C/C(=N\N)C(CN1CCCCC1)C(c1ccccc1)c1c(O)c2ccccc2oc1=O (configuration not stated)	> 100 µM	> 100 µM	> 100 µM	> 100 µM				> 100	> 100	> 100	> 100	> 100		
CCOc1ccc(NC(=O)/C(Cc2nc3ccccc3[nH]c2=O)=N\O)cc1	> 100 µM	> 100 µM	> 100 µM	> 100 µM										
C=C(c1ccccc1)[C@@]1(O)CCCC[C@H]1NC(c1ccccc1)c1ccccc1	22.3 µM	27.1 µM	31.9 µM	23.9 µM	35.4 µM									
CO[C@H](C(=O)O[C@H]1C(=O)N2CCC3CCC1C32C)c1ccccc1 (some centres not stated)	> 100 µM		> 100 µM	> 100 µM	> 100 µM									
Cc1cc(N(CCC#N)CCC#N)ccc1/C=C(\NC(=O)/C=C/c1ccccc1)NC(=O)Nc1ccccc1C	> 100 µM	> 100 µM	> 100 µM	> 100 µM										
COc1cccc(-c2cc(C(=O)Nc3ccc(Cl)cc3)nc(N)n2)c1	> 100 µM	> 100 µM	> 100 µM	> 100 µM	> 100 µM									
CC12CCC(=O)N1c1cc([N+](=O)[O-])ccc1N2 (configuration not stated)	> 100 µM	> 100 µM	> 100 µM	> 100 µM	> 100 µM									
